From US8058243B2, “Method for treating a brain cancer with ifenprodil” (HSC Research and Development Limited Partnership, priority 2006, dated 2011)
Counter-ions that a name gives are not always drawn. Like-named read-outs stand apart in the source and are kept apart here.

System: murine neural precursor cells (neurosphere cultures)
Assay: HTS of LOPAC library against secondary neurosphere cultures, MTT proliferation assay at 3 μM, day 7 (z score, P value)
Assay type: cell-based, mouse
[1] = LOPAC library screen at 3 μM, secondary neurosphere cultures, MTT
[2] = primary LOPAC screen, 3 μM, MTT, neurosphere proliferation
[3] = yes/no: significantly inhibited neurosphere proliferation in the primary screen
[4] = LOPAC primary screen, neurosphere MTT proliferation, 3 μM, day 7
[5] = yes/no: significantly inhibited neurosphere proliferation in primary screen
[6] = yes/no: significantly inhibited neurosphere proliferation (P<0.01) in primary screen
[7] = LOPAC screen, neurosphere MTT proliferation, 3 μM, day 7
[8] = yes = significantly inhibited neurosphere proliferation (P<0.01) in the primary screen
[9] = LOPAC library screen, 3 μM, MTT, neurosphere cultures
[10] = LOPAC library screen, 3 μM, MTT, secondary neurosphere cultures, day 7
[11] = yes/no: significantly inhibited neurosphere proliferation (P<0.01) in the primary screen

CC(=O)OC(C)C[N+](C)(C)C.[Cl-] (stereo not drawn) [Acetyl-beta-methylcholine chloride]
Z Score [1]: −0.3382 | Z score [2]: −0.338 | Activity [3]: no

Cc1cccc(/C=C/c2ccccc2)n1 [SIB 1893]
Z Score: −0.848 | Z score [4]: −0.848 | Activity [5]: no

Cl.NC1(C(=O)O)CC1 [1-Aminocyclopropanecarboxylic acid hydrochloride]
Activity: yes | Z Score: −2.401 | Z score: −2.401

Cc1ccccc1N1CCN(S(=O)(=O)CC23CCC(CC2NC(=O)C(N)CCS(C)(=O)=O)C3(C)C)CC1 [L-368,899]
Z Score: 0.2909 | Z score [4]: 0.291 | Activity [6]: no

CCc1cccc2c3c([nH]c12)C(CC)(CC(=O)O)OCC3 (centres unmarked) [Etodolac]
Z Score [1]: −0.5582 | Z score [7]: −0.558 | Activity [6]: no

Ic1ccccc1CNC1C2CCN(CC2)C1C(c1ccccc1)c1ccccc1.O=C(O)C(=O)O [L-703,606 oxalate]
Z Score [1]: −0.5069 | Z score [4]: −0.507 | Activity [8]: no

N[C@H](CCC(=O)NCS(=O)(=O)O)C(=O)O [gamma-D-Glutamylaminomethylsulfonic acid]
Z Score [9]: −0.04649 | Z score [4]: −0.046 | Activity [6]: no

CC(C)(Oc1ccc(C2CC2(Cl)Cl)cc1)C(=O)O (centres unmarked) [Ciprofibrate]
Z Score [10]: −1.326 | Z score [7]: −1.326 | Activity [6]: no

C[C@](N)(CCP(=O)(O)O)C(=O)O.Cl [(S)-MAP4 hydrochloride]
Z Score: −0.5525 | Z score [4]: −0.553 | Activity [8]: no

Cl.Cl.NCCSSCCN [Cystamine dihydrochloride]
Z Score: 2.23 | Z score [7]: 2.230 | Activity [6]: no

O=c1onc2cnc3ccccc3n12 [ODQ]
Z Score: −0.5922 | Z score [4]: −0.592 | Activity [5]: no

Hydroxytacrine maleate
Z Score: −0.2043 | Z score [4]: −0.204 | Activity [6]: no

Cl.N[C@@H](Cc1c[nH]cn1)C(=O)O [L-Histidine hydrochloride]
Z Score: −1.421 | Z score [4]: −1.421 | Activity [6]: no

Br.Oc1cc2c(c(Cl)c1O)CCNCC2c1ccccc1 (centres unmarked) [(B1)-6-Chloro-PB hydrobromide]
Z Score: −2.267

CC(C)Oc1cccnc1N(C)C1CCN(Cc2ccccc2)CC1.O=C(O)/C=C\C(=O)O [U-101958 maleate]
Z Score: −2.065 | Z score [2]: −2.065 | Activity [3]: no

CN(C)CCC=C1c2ccccc2C=Cc2ccccc21 [Cyclobenzaprine hydrochloride]
Z Score [9]: 0.07186 | Z score [7]: 0.072 | Activity [6]: no

COc1ccccc1N1CCN(CC(O)COc2cccc3ccccc23)CC1 (centres unmarked) [Naftopidil dihydrochloride]
Z Score [1]: −0.1172 | Z score [4]: −0.117 | Activity [5]: no

CC(=O)[C@H]1CC[C@H]2[C@@H]3CCC4=CC(=O)CC[C@]4(C)[C@H]3CC[C@]12C [Progesterone]
Z Score [9]: 0.4252 | Z score [4]: 0.425 | Activity [5]: no

NC(=O)c1ccccc1C(=O)N[C@@H](CCC(=O)O)C(=O)O.[Na].[Na].[Na] [Phthalamoyl-L-glutamic acid trisodium]
Z Score (168 h, 3 µM): 0.2509 | Z score (168 h, 3 µM): 0.251 | Activity [5]: no

N[C@@H](Cc1c[nH]c2ccc(O)cc12)C(=O)O [5-Hydroxy-L-tryptophan]
Z Score [9]: 0.03011 | Z score [4]: 0.030 | Activity [6]: no

NC(=S)c1ccc[n+]([C@@H]2O[C@@H](COP(=O)([O-])OP(=O)(O)OC[C@H]3O[C@@H](n4cnc5c(N)ncnc54)C(OP(=O)([O-])O)[C@H]3O)C(O)C2O)c1.[Na+] (some centres unmarked) [Thio-NADP sodium]
Z Score: 0.3661 | Z score [2]: 0.366 | Activity [3]: no

CC(=O)SCC[N+](C)(C)C.[Cl-] [Acetylthiocholine chloride]
Z score [2]: 0.004 | Activity [3]: no

CCN1CCC[C@H]1CNC(=O)c1c(OC)ccc(I)c1O [S(−)-IBZM]
Z Score: −0.1166 | Z score [4]: −0.117 | Activity [11]: no

CCCCNc1ccc(C(=O)OCCN(C)C)cc1 [Tetracaine hydrochloride]
Z Score [9]: −0.01953 | Z score [2]: −0.020 | Activity [3]: no

CCSC(N)=Nc1ccc(C(F)(F)F)cc1.Cl [TFPI hydrochloride]
Z Score [1]: −1.156 | Z score [4]: −1.156 | Activity [5]: no

CCCn1c(=O)c2[nH]c(-c3ccc(S(=O)(=O)O)cc3)nc2n(CCC)c1=O [1,3-Dipropyl-8-p-sulfophenylxanthine]
Z Score: 4.743 | Z score: 4.743 | Activity [3]: no

CC(CCc1ccccc1)NCC(O)c1ccc(O)c(C(N)=O)c1 (centres unmarked) [Labetalol hydrochloride]
Activity: no | Z Score [1]: −1.097 | Z score [4]: −1.097

CCCCNc1cc(C(=O)O)cc(S(N)(=O)=O)c1Oc1ccccc1 [Bumetanide]
Z Score [10]: −2.182 | Z score [7]: −2.182 | Activity [6]: no

CN1CCC(c2c[nH]c3ccc(O)cc23)CC1.O=C(O)/C=C\C(=O)O [BRL 54443 maleate]
Z Score: 0.3378 | Z score [7]: 0.338 | Activity [6]: no

C[C@H]1O[C@@H](n2cc(F)c(=O)[nH]c2=O)[C@H](O)[C@@H]1O [5-fluoro-5′-deoxyuridine]
Z Score [9]: 0.3787 | Z score [4]: 0.379 | Activity [6]: no

NS(=O)(=O)c1cc2c(cc1Cl)N=CNS2(=O)=O [Chlorothiazide]
Z Score [10]: −3.165 | Z score [4]: −3.165 | Activity [8]: yes

CO/N=C(\C(=O)N[C@@H]1C(=O)N2C(C(=O)O)=C(COC(C)=O)CS[C@H]12)c1csc(N)n1 [Cefotaxime sodium]
Z Score [1]: −1.096 | Z score [4]: −1.096 | Activity [11]: no

C[C@@]12C(=O)OC(=O)[C@]1(C)[C@H]1CC[C@@H]2O1 [Cantharidin]
Z Score: −0.5781 | Z score [7]: −0.578 | Activity [6]: no

COc1ccc(C(=O)N2CCCC2=O)cc1 [Aniracetam]
Z Score [10]: −1.355 | Z score [2]: −1.355 | Activity [3]: no

O=[N+]([O-])c1cccc2cn[nH]c12 [7-Nitroindazole (34), 7-Nitroindazole, reference compound]
Z Score: −1.349 | Z score [4]: −1.349 | Activity [8]: no

C[C@]12CC[C@@H](O)C[C@@H]1CC[C@@H]1[C@@H]2CC[C@]2(C)[C@@H](O)CC[C@@H]12 [5alpha-Androstane-3alpha,17beta-diol]
Z score [2]: −0.381 | Activity [3]: no

CCN(CCCl)Cc1ccccc1Br.Cl [DSP-4 hydrochloride]
Z Score: 1.518 | Z score [4]: 1.518 | Activity [11]: no

O=C(O)C1CCNCC1 [Isonipecotic acid]
Z Score (168 h, 3 µM): −0.4569 | Z score (168 h, 3 µM): −0.457 | Activity [6]: no

Cl.O=C(O)C1CCCN(CCC=C(c2ccccc2)c2ccccc2)C1 (centres unmarked) [SKF 89976A hydrochloride]
Z Score: −0.2328 | Z score [4]: −0.233 | Activity [5]: no

O=C1Nc2ccc(I)cc2/C1=C/c1cc(Br)c(O)c(Br)c1 [GW5074]
Z Score: −0.1619 | Z score [4]: −0.162 | Activity [6]: no

WB 64
Z Score: −1.683 | Z score [2]: −1.683 | Activity [3]: no

CCCCCCCCCCCCCCCC(=O)NCCO [Palmitoylethanolamide]
Activity: no | Z Score [1]: −0.9134 | Z score [4]: −0.913

C[N+]1(C)[C@@H]2CC[C@H]1C[C@@H](OC(=O)C(CO)c1ccccc1)C2 (some centres unmarked) [Atropine methyl nitrate]
Z Score [9]: 1.292 | Z score [4]: 1.292 | Activity [5]: no

CC(C)NP(=O)(NC(C)C)OP(=O)(NC(C)C)NC(C)C [Tetraisopropyl pyrophosphoramide]
Z Score: −1.114 | Z score [2]: −1.114 | Activity [3]: no

NC1(C(=O)O)CCc2cc(C(=O)O)ccc21 (centres unmarked) [AIDA]
Z Score: 0.154 | Z score [2]: 0.154 | Activity [3]: no

Albuterol hemisulfate
Z Score [1]: −0.949 | Z score [4]: −0.949 | Activity [5]: no

C[C@@]1(C2CCCC2)Cc2cc(OCC(=O)O)c(Cl)c(Cl)c2C1=O [R(+)-IAA-94]
Z Score: −0.01015 | Z score [4]: −0.010 | Activity [6]: no

Nc1nnc(-c2cccc(Cl)c2Cl)c(N)n1 [Lamotrigine]
Z Score [1]: −1.095 | Z score [4]: −1.095 | Activity [6]: no

OCCN1CCN(CCCN2c3ccccc3Sc3ccc(C(F)(F)F)cc32)CC1 [Fluphenazine dihydrochloride]
Z Score (168 h, 3 µM): −10.2 | Z score (168 h, 3 µM): −10.197 | Activity [11]: yes

Cc1c(OCC(F)(F)F)ccnc1C[S+]([O-])c1nc2ccccc2[nH]1 (centres unmarked) [Lansoprazole]
Z Score [9]: −0.0336 | Z score [4]: −0.034 | Activity [6]: no

COc1ccc(CCN(C)CCc2ccc(OC)c(OC)c2)cc1OC.Cl [YS-035 hydrochloride]
Z Score: 0.04311 | Z score [4]: 0.043 | Activity [11]: no

CCCCCCC(C)(C)c1ccc([C@@H]2C[C@H](O)CC[C@H]2CCCO)c(O)c1 [CP55940]
Z Score: 1.396 | Z score [2]: 1.396 | Activity [3]: no

Cn1cnc([N+](=O)[O-])c1Sc1ncnc2nc[nH]c12 [Azathioprine]
Z Score [10]: −7.913 | Z score [4]: −7.913 | Activity [8]: yes

Nc1ncnc2c1ncn2[C@@H]1O[C@H](CO)[C@@H](O)[C@H]1O [Adenosine]
Z Score [1]: −0.2086 | Z score [2]: −0.209 | Activity [3]: no
